The values that follow come from patent US9357777B2, “Method for effective management of helicoverpa armigera” (priority 2012, dated 2016).

Bridges are numbered along the chain shown (N, C = ends). Where no end group is shown, it is not given here.

The target in the assay is T1, bovine trypsin (Bos taurus, UniProt P00760).
T1 construct: purchased Sigma-Aldrich
T1 sequence (P00760 24-246): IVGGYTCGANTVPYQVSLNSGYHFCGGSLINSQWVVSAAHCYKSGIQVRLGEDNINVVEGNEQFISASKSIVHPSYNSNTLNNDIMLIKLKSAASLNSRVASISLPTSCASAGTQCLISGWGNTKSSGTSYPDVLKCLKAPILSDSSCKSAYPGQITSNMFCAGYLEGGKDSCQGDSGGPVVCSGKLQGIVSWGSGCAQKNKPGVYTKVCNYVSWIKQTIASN
As to the kind of experiment: Inhibition kinetics with bovine trypsin (BApNA substrate). In kind it is biochemical. As for the experimental part:
Michaelis-Menten constant (Km) for trypsin was calculated by using various concentrations of BApNA substrate (1 to 5 mM), and then plotting double reciprocal curve with 1/(v) and 1/[S]. The kinetic properties of IRDs were analysed over a range of concentration of inhibitors (1 μM to 1 mM). IC50 values for each inhibitor were calculated from the sigmoid curve indicating the best fit for the percentage inhibition data obtained. The values of Ki values for each inhibitor were calculated directly from IC50 values using Cheng-Prusoff's classical equation (Copeland et al., 1995).

By Ki is commonly meant a measure of affinity in units of concentration, obtained from inhibition or displacement. In general, IC50 refers to the concentration that inhibits the measured activity by half. Lower therefore signals higher potency. For “QPICTNSSAGLKGCNYYNADGTFICEGESDPNHPKACPKNCDPNIAYSLC (disulfide 4-41, 14-50; cysteines drawn unpaired) [IRD-9]”, the Ki (calculated from IC50 by Cheng-Prusoff's equation, read-out: Inhibition constant (Ki)) was roughly 2200 nM. For the setting “substrate BApNA 1 mM, FIG. 2C”, the 50% inhibitory concentration (IC50) is roughly 2200 nM.
